Source: BindingDB's records for doi:10.1016/s1074-5521(97)90198-8 (Massachusetts Institute of Technology, 1997)

Biological target: Methionine aminopeptidase 2 (Homo sapiens, UniProt P50579)
Experiment: Enzymatic Assay
Conditions: pH 7.35; 37 °C
Description: Enzymatic assay using recombinant human type 2 methionine aminopeptidase (MetAP2).

Chain of Methionine aminopeptidase 2 (P50579 whole entry): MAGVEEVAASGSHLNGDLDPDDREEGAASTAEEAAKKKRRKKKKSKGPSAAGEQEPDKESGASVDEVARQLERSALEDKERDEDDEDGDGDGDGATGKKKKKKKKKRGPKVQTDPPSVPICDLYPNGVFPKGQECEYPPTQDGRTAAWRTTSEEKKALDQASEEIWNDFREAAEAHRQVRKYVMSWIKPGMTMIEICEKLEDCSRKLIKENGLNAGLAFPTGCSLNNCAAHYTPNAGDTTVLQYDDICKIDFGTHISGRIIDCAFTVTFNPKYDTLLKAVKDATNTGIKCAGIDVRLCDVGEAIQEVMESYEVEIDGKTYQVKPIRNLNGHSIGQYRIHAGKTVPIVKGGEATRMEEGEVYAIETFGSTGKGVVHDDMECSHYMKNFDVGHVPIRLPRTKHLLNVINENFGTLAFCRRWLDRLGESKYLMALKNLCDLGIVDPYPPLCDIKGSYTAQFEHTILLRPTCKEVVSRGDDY

Row | Compound | IC50 [nM]
1 | CO[C@H]1C([C@]2(C)OC2CC=C(C)C)[C@]2(CC[C@H]1OC(=O)NC(=O)CCl)CO2 (stereo not given in full) [AGM-1470] | 1
2 | CO[C@@H]1[C@H](O)CC[C@]2(CO2)[C@@]1(O)[C@]1(C)OC1CC=C(C)C (stereo not given in full) [FOS-34] | 4
3 | CO[C@H]1C([C@]2(C)OC2CC=C(C)C)[C@]2(CC[C@H]1O)CO2 (stereo not given in full) [FOS-37] | 8
4 | CO[C@H]1C([C@]2(C)OC2CC=C(C)C)[C@@](O)(SC)CC[C@H]1OC(=O)NC(=O)CCl (stereo not given in full) [FOS-64] | 3000
5 | CO[C@@H]1[C@H](OC(=O)NC(=O)CCl)CC[C@]2(CO2)[C@@]1(O)[C@]1(C)OC1CC=C(C)C (stereo not given in full) [FOS-68] | 2
6 | CO[C@@H]1[C@H](OC(=O)CCCCl)CC[C@]2(CO2)[C@@]1(O)[C@]1(C)OC1CC=C(C)C (stereo not given in full) [FOS-69] | 0.1
7 | CO[C@H]1C([C@]2(C)OC2CC=C(C)C)[C@]2(CC[C@H]1OC(=O)CCCCl)CO2 (stereo not given in full) [FOS-70] | 3.5
8 | CO[C@@H]1C(=O)CC[C@]2(CO2)C1[C@]1(C)OC1CC=C(C)C (stereo not given in full) [FOS-72] | 6
9 | CO[C@@H]1[C@H](O)CC[C@](O)(SC)[C@@]1(O)[C@]1(C)OC1CC=C(C)C (stereo not given in full) [FOS-201] | 45
10 | CO[C@H]1C([C@]2(C)OC2CC=C(C)C)[C@@](O)(SC)CC[C@H]1O (stereo not given in full) [FOS-202] | 5000
